Consider two compounds from article doi:10.1101/2020.08.16.252940v1 (biorxiv, 2020).

Test [1] concerns the target VDR-LBD (Homo sapiens, UniProt P11473). As to the kind of experiment: biochemical.
Test [2] has as its target VDR (Homo sapiens, UniProt P11473). Particulars: antagonist mode; agonist and cell line not told.

Structures are written as SMILES.

VDR-LBD, sequence (P11473 118-427 limits assumed): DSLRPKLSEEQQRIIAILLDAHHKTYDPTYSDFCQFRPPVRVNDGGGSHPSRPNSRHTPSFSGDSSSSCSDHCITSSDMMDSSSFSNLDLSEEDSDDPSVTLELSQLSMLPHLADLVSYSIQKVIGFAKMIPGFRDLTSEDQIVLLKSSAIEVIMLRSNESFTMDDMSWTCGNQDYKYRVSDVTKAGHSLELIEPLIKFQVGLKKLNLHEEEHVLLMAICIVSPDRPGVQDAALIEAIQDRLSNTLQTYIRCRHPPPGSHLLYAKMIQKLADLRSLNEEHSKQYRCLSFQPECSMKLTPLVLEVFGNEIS
VDR, sequence (P11473 whole entry): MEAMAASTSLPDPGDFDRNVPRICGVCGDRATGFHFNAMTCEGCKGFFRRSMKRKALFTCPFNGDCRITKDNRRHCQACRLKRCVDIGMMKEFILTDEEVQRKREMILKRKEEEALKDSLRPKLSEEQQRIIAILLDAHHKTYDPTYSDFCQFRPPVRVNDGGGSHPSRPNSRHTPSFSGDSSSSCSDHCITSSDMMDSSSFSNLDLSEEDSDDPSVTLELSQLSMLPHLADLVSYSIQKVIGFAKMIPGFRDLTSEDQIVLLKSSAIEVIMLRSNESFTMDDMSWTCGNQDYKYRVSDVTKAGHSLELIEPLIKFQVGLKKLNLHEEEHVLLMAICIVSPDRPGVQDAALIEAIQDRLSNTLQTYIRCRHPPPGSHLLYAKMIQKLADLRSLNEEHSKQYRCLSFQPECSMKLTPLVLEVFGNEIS

For orientation: IC50 means the concentration at which inhibition is half-maximal. Low values mean greater potency in that assay, high ones weaker potency in that assay. For the compound `CC(C)CCC[C@@H](C)[C@H]1CC[C@@H]2[C@]1(C)CC[C@H]1[C@]23C=C[C@]2(C[C@@H](OC(=O)CBr)CC[C@]12C)n1c(=O)n(C)c(=O)n13` [MeTC7], inhibition in test [1] was half-maximal at 1.86 µM (IC50).

On to `CC(C)CCC[C@@H](C)[C@H]1CC[C@H]2C3=CC=C4C[C@@H](O)CC[C@]4(C)[C@H]3CC[C@]12C` [7-dehydrocholesterol], for which the “inhibition only at concentrations above” value in test [2] was more than 100 µM.
